Patent US20240180886A1, “INHIBITORS OF PROTEIN TYROSINE PHOSPHATASE, COMPOSITIONS, AND METHODS OF USE” (BRISTOL-MYERS SQUIBB COMPANY, priority 2022, published 2024)

Tests used:
PTPN2 [1] = biological target: T1, PTPN2 (Homo sapiens (Human), UniProt P17706); test: PhosphoSens assay (PTPN2 BCHEM); type: biochemical; conditions: substrate AQT0264 20 μM, PTPN2 150 pM
Experimental: A PhosphoSens® kinase assay was performed as described by the vendor (AssayQuant Technologies, Marlborough, MA). Briefly, 1000× solutions of compounds were prepared in DMSO via serial dilution of the 10 mM DMSO stocks using 3-fold intervals in a 384-well reagent plate. 50 nL of the compound dilution series was then added to the corresponding wells of a 384-well assay plate. […] Finally, […] of 5× PTPN2 enzyme stock was added to each well of the assay plate for a final enzyme concentration of 150 pM. Reaction progress curves were collected by sampling fluorescence intensity at the excitation wavelength 360 nm (λex360) and emission wavelength 480 nm (λem480) every 71 seconds for one hour using a Synergy H4 plate reader (BioTek Instruments/Agilent Technologies, Winooski, VT) at room temperature.
Target sequence in this assay (P17706 whole entry): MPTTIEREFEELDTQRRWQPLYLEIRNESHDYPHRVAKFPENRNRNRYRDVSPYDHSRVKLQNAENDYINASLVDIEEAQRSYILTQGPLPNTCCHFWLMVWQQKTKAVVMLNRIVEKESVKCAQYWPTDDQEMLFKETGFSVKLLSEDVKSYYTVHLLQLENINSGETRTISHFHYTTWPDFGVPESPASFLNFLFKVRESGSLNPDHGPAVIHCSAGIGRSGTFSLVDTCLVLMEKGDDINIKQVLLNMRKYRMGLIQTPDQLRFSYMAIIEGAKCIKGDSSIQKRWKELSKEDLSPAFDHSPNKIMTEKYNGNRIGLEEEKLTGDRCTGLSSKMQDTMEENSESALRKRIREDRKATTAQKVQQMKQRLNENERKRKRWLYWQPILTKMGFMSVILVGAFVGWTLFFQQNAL

[2] = test system: phosphorylated STAT1 in B16-F10 cells; test: Phospho-STAT1 (Tyr701) HTRF assay in B16-F10 cells with IFN-gamma; type: cell-based; conditions: mouse IFN-gamma 100 ng/mL, 1 hour, read-out: pSTAT1 HTRF B16F10 EC50
Experimental: B16-F10 cells (ATCC, Manassas, VA, #CRL-6475) were cultured in DMEM growth medium (ThermoFisher Scientific, Waltham, MA, #11995-040) supplemented with 10% heat-inactivated FBS (ThermoFisher Scientific, #16140-071) and 1% pen/strep (ThermoFisher Scientific, #15140-122). The cells were seeded into a white opaque 384-well tissue culture treated microplate (PerkinElmer, Waltham, MA, #6007688) at a density of 10,000 cells/well in 20 uL total volume and incubated overnight at 37 C and 5% CO2. 30 nL of compounds dissolved in DMSO were then transferred from a source plate into target wells with the Echo650 acoustic liquid handler (Beckman Coulter, Indianapolis, IN). Negative control wells received 30 nL of DMSO only (0.15% final concentration). Plates were returned to the incubator for 1 hour and then cells were treated with either 5 uL of growth medium or 5 uL of growth medium containing 500 ng/mL of recombinant mouse IFN-gamma protein (R&D Systems, Minneapolis, MN, #485-MI/CF, 100 ng/mL final concentration) using the Assist automated pipetting platform (INTEGRA Biosciences, Hudson, NH). Plates were incubated at 37 C for 1 hour and assayed for phosphorylated STAT1 protein levels with the phospho-STAT1 (Tyr701) HTRF kit (Cisbio, Bedford, MA, #63ADK026PEH) according to the manufacturer's instructions.

PTPN2 [3] = biological target: T1, PTPN2; test: Phosphatase activity assay using DiFMUP as substrate; type: biochemical; conditions: PTPN2 0.15 nM, 10 mM DTT
Experimental: The PTPN2 biochemical assay was performed as follows, a 5× stock solution of human PTPN2 (SRP5075, MilliporeSigma, Burlington, MA) and a 1.25× stock solution of DiFMUP (D6567, ThermoFisher Scientific, Waltham, MA), were prepared in 1× reaction buffer consisting of 50 mM HEPES, pH 7.4, 1 mM EDTA, 150 mM NaCl, 0.2 mg/mL BSA, 100 U/mL catalase and 10 mM DTT. […] of the DiFMUP substrate solution, for a final concentration of […] DiFMUP substrate, was added to a Corning 3574 384-well, white, non-binding surface microtiter plate containing […] of serially diluted test compounds prepared in DMSO. The reactions were started with the addition of […] of the enzyme solution, for a final PTPN2 concentration of 0.15 nM, and monitored every 105 seconds for 60 minutes at λEX 360/λEM 460 in a BioTek Synergy HTX plate reader (Agilent Technologies, Santa Clara, CA) at room temperature. The initial linear portions of the progress curves were fit according to a linear equation to yield the slopes and converted to % inhibition based on a value of 100% activity for the no inhibitor treated control. IC50 values of each compound were obtained by fitting the % inhibition-compound concentration curves using Dotmatics software (Dotmatics, Bishops Stortford, Hertfordshire, England),
Target sequence in this assay (P17706 other isoform, or with tags, fused parts or gaps isoform P17706-2): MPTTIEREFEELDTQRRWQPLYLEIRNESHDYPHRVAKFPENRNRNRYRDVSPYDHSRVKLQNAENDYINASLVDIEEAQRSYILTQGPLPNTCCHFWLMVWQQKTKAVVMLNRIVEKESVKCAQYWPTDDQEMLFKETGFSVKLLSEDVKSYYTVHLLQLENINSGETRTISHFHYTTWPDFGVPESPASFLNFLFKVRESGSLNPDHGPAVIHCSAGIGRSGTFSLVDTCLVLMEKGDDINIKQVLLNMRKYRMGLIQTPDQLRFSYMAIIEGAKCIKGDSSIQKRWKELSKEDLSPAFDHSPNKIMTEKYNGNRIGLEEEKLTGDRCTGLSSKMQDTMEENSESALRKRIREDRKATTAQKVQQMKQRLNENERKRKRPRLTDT

B16-F10 cells = test: Cell proliferation assay (CellTiter-Glo) in B16-F10 cells with IFN-gamma; type: cell-based; conditions: 120 h, mouse IFN-gamma 10 ng/mL, read-out: PTPN2 Prolif 5d B16F10 EC50

| SMILES | IC50 (PTPN2 [1]) | EC50 [2] | IC50 (PTPN2 [3]) | EC50 (B16-F10 cells) |
| --- | --- | --- | --- | --- |
| O=C1CN(c2c(O)cc(CNc3cc(C4CC4)ccn3)cc2F)S(=O)(=O)N1 [EXAMPLE 1, 5-[4-[[(4-cyclopropyl-2-pyridyl)amino]methyl]-2-fluoro-6-hydroxy-phenyl]-1,1-dioxo-1,2,5-thiadiazolidin-3-one] | 6 nM | 260 nM | 1 nM | 580 nM |
| O=C1CN(c2c(O)cc(CNc3cc(C(F)(F)F)ccn3)cc2F)S(=O)(=O)N1 [EXAMPLE 2, 5-[2-fluoro-6-hydroxy-4-[[[4-(trifluoromethyl)-2-pyridyl]amino]methyl]phenyl]-1,1-dioxo-1,2,5-thiadiazolidin-3-one] | 80 nM | 2430 nM | 350 nM | 2670 nM |
| O=C1CN(c2c(O)cc(CNc3ncccc3C(F)(F)F)cc2F)S(=O)(=O)N1 [EXAMPLE 3, 5-[2-fluoro-6-hydroxy-4-[[[3-(trifluoromethyl)-2-pyridyl]amino]methyl]phenyl]-1,1-dioxo-1,2,5-thiadiazolidin-3-one] | 570 nM | > 15000 nM | 1000 nM | > 15000 nM |
| CC(C)(C)c1ccc(NCc2cc(O)c(N3CC(=O)NS3(=O)=O)c(F)c2)nc1 [EXAMPLE 4, 5-[4-[[(5-tert-butyl-2-pyridyl)amino]methyl]-2-fluoro-6-hydroxy-phenyl]-1,1-dioxo-1,2,5-thiadiazolidin-3-one] | 30 nM | 1030 nM | 8 nM | 670 nM |
| O=C1CN(c2c(O)cc(CNc3cc(OC4CC4)ccn3)cc2F)S(=O)(=O)N1 [EXAMPLE 6, 5-[4-[[[4-(cyclopropoxy)-2-pyridyl]amino]methyl]-2-fluoro-6-hydroxy-phenyl]-1,1-dioxo-1,2,5-thiadiazolidin-3-one] | 3 nM | 140 nM | 10 nM | 170 nM |
| COc1ccc(OC)c(NCc2cc(O)c(N3CC(=O)NS3(=O)=O)c(F)c2)n1 [EXAMPLE 21, 5-[4-[[(3,6-dimethoxy-2-pyridyl)amino]methyl]-2-fluoro-6-hydroxy-phenyl]-1,1-dioxo-1,2,5-thiadiazolidin-3-one] | – | 9450 nM | 20 nM | 6700 nM |
| COc1ccnc(NCc2cc(O)c(N3CC(=O)NS3(=O)=O)c(F)c2)c1OC [EXAMPLE 27, 5-[4-[[(3,4-dimethoxy-2-pyridyl)amino]methyl]-2-fluoro-6-hydroxy-phenyl]-1,1-dioxo-1,2,5-thiadiazolidin-3-one] | – | > 15000 nM | 810 nM | 1710 nM |
| COc1ccc(C)c(NCc2cc(O)c(N3CC(=O)NS3(=O)=O)c(F)c2)n1 [EXAMPLE 29, 5-[2-fluoro-6-hydroxy-4-[[(6-methoxy-3-methyl-2-pyridyl)amino]methyl]phenyl]-1,1-dioxo-1,2,5-thiadiazolidin-3-one] | – | 7380 nM | 5 nM | 9020 nM |
| O=C1CN(c2c(O)cc(CNc3cccc(C(F)F)n3)cc2F)S(=O)(=O)N1 [EXAMPLE 42, 5-[4-[[[6-(difluoromethyl)-2-pyridyl]amino]methyl]-2-fluoro-6-hydroxy-phenyl]-1,1-dioxo-1,2,5-thiadiazolidin-3-one] | – | 4700 nM | 40 nM | 160 nM |
| O=C1CN(c2c(O)cc(CNc3cccc(OC(F)F)n3)cc2F)S(=O)(=O)N1 [EXAMPLE 43, 5-[4-[[[6-(difluoromethoxy)-2-pyridyl]amino]methyl]-2-fluoro-6-hydroxy-phenyl]-1,1-dioxo-1,2,5-thiadiazolidin-3-one] | – | > 15000 nM | 110 nM | 6570 nM |
| Cc1cc(NCc2cc(O)c(N3CC(=O)NS3(=O)=O)c(F)c2)nc(N2CCOCC2)c1 [EXAMPLE 49, 5-(2-fluoro-6-hydroxy-4-(((4-methyl-6-morpholinopyridin-2-yl)amino)methyl)phenyl)-1,2,5-thiadiazolidin-3-one 1,1-dioxide] | – | 4820 nM | 20 nM | 14700 nM |
| O=C1CN(c2c(O)cc(CNc3cccc(=O)[nH]3)cc2F)S(=O)(=O)N1 [EXAMPLE 51, 5-(2-fluoro-6-hydroxy-4-(((6-oxo-1,6-dihydropyridin-2-yl)amino)methyl)phenyl)-1,2,5-thiadiazolidin-3-one 1,1-dioxide] | – | 200 nM | 0.2 nM | 600 nM |

The remaining lines, values ahead:

| IC50 (PTPN2 [1]) | EC50 [2] | IC50 (PTPN2 [3]) | EC50 (B16-F10 cells) | SMILES |
| --- | --- | --- | --- | --- |
| 1 nM | 30 nM | 1 nM | 50 nM | Cc1cc(C)nc(NCc2cc(O)c(N3CC(=O)NS3(=O)=O)c(F)c2)c1 [EXAMPLE 5, 5-[4-[[(4,6-dimethyl-2-pyridyl)amino]methyl]-2-fluoro-6-hydroxy-phenyl]-1,1-dioxo-1,2,5-thiadiazolidin-3-one] |
| 5 nM | 180 nM | 3 nM | 170 nM | Cc1ccnc(NCc2cc(O)c(N3CC(=O)NS3(=O)=O)c(F)c2)c1 [EXAMPLE 7, 5-[2-fluoro-6-hydroxy-4-[[(4-methyl-2-pyridyl)amino]methyl]phenyl]-1,1-dioxo-1,2,5-thiadiazolidin-3-one] |
| – | 670 nM | 20 nM | 670 nM | COc1cc(NCc2cc(O)c(N3CC(=O)NS3(=O)=O)c(F)c2)nc(OC)c1 [EXAMPLE 18, 5-[4-[[(4,6-dimethoxy-2-pyridyl)amino]methyl]-2-fluoro-6-hydroxy-phenyl]-1,1-dioxo-1,2,5-thiadiazolidin-3-one] |
| – | 1940 nM | 140 nM | 4710 nM | COc1cc(C)cc(NCc2cc(O)c(N3CC(=O)NS3(=O)=O)c(F)c2)n1 [EXAMPLE 39, 5-(2-fluoro-6-hydroxy-4-(((6-methoxy-4-methylpyridin-2-yl)amino)methyl)phenyl)-1,2,5-thiadiazolidin-3-one 1,1-dioxide] |
| – | 1750 nM | 5 nM | 2190 nM | N#Cc1cccc(NCc2cc(O)c(N3CC(=O)NS3(=O)=O)c(F)c2)n1 [EXAMPLE 40, 6-[[3-fluoro-5-hydroxy-4-(1,1,4-trioxo-1,2,5-thiadiazolidin-2-yl)phenyl]methylamino]pyridine-2-carbonitrile] |
| – | 59 nM | 2 nM | 50 nM | COc1cc(C)nc(NCc2cc(O)c(N3CC(=O)NS3(=O)=O)c(F)c2)c1 [EXAMPLE 41, 5-[2-fluoro-6-hydroxy-4-[[(4-methoxy-6-methyl-2-pyridyl)amino]methyl]phenyl]-1,1-dioxo-1,2,5-thiadiazolidin-3-one] |
| – | 4850 nM | 10 nM | 5750 nM | CN(C)c1cccc(NCc2cc(O)c(N3CC(=O)NS3(=O)=O)c(F)c2)n1 [EXAMPLE 44, 5-(4-(((6-(dimethylamino)pyridin-2-yl)amino)methyl)-2-fluoro-6-hydroxyphenyl)-1,2,5-thiadiazolidin-3-one 1,1-dioxide] |
| – | 3110 nM | 40 nM | 4620 nM | Cc1cc(Br)nc(NCc2cc(O)c(N3CC(=O)NS3(=O)=O)c(F)c2)c1 [EXAMPLE 48, 5-(4-(((6-bromo-4-methylpyridin-2-yl)amino)methyl)-2-fluoro-6-hydroxyphenyl)-1,2,5-thiadiazolidin-3-one 1,1-dioxide] |
| – | 6290 nM | 10 nM | 3340 nM | Cc1cc(Oc2ccccc2)cc(NCc2cc(O)c(N3CC(=O)NS3(=O)=O)c(F)c2)n1 [EXAMPLE 52, 5-(2-fluoro-6-hydroxy-4-(((6-methyl-4-phenoxypyridin-2-yl)amino)methyl)phenyl)-1,2,5-thiadiazolidin-3-one 1,1-dioxide] |
